Tested on: cancer cell lines
Assay: Cancer cell proliferation activity of representative nucleosides, CellTiterGlo 72 h (Example 7, Tables 8 and 9)
Type: cell-based
Protocol: Dose response relationships on cell proliferation was assessed for representative nucleosides on cancer cell lines. Briefly, compound treatment of cells started one day after seeding with a final DMSO concentration of 0.1%, and was performed by nanodrop-dispensing using a Tecan Dispenser. 0.1% DMSO (solvent) and Staurosporine (10 μM) served as high control (100% viability) and low control (0% viability), respectively. Cells were cultured in the appropriate media. For the assays, cells were seeded in white cell culture-treated flat and clear bottom multiwell plates and incubated at 37° C. overnight before compound was added. After incubation for 72 h at 37° C. at 5% or 10% CO2 dependent on the medium, cell plates were equilibrated to room temperature for one hour, CellTiterGlo reagent (Promega) was added and luminescence was measured approximately an hour later using a luminometer.
Raw data were converted into percent cell viability relative to the high and low control, which were set to 100% and 0%, respectively.

In the case of Nc1ccn([C@H]2C[C@H](O)[C@](CO)(CF)O2)c(=O)n1 [compound 32], the IC50 (72 h, 5637, 72 h (Table 9)) is reported as 450 nM, the IC50 (72 h, CLS439, 72 h (Table 9)) is reported as 2270 nM and the IC50 (72 h, HS729, 72 h (Table 9)) is reported as 580 nM. It also gave an IC50 (72 h, J82, 72 h (Table 9)) of 760 nM, an IC50 (72 h, JAR, 72 h (Table 9)) of over 50000 nM and an IC50 (72 h, MT3, 72 h (Table 9)) of 80 nM. It also gave an IC50 (72 h, PC3, 72 h (Table 9)) of 180 nM, an IC50 (72 h, RD, 72 h (Table 9)) of 1030 nM and an IC50 (72 h, T24, 72 h (Table 9)) of 290 nM. It also gave an IC50 (Homo sapiens, 22Rv1, 72 h, 22RV1, 72 h (Table 9)) of 1330 nM, an IC50 (Homo sapiens, 786-0, 72 h, 786O, 72 h (Table 9)) of 1070 nM and an IC50 (Homo sapiens, A204, 72 h, A204, 72 h (Table 9)) of 20 nM. The IC50 (Homo sapiens, A549, 72 h, A549, 72 h (Table 9)) was 440 nM, the IC50 (Homo sapiens, A673, 72 h, A673, 72 h (Table 9)) was 1740 nM and the IC50 (Homo sapiens, A2780, 72 h, A2780, 72 h (Table 9)) was 720 nM. It also gave an IC50 (Homo sapiens, A-375, 72 h, A375, 72 h (Table 9)) of 710 nM, an IC50 (Homo sapiens, A-431, 72 h, A431, 72 h (Table 9)) of 470 nM and an IC50 (Homo sapiens, ACHN, 72 h, 72 h (Table 9)) of 390 nM. It also gave an IC50 (Homo sapiens, ASPC1, 72 h, ASPC1, 72 h (Table 9)) of 580 nM, an IC50 (Homo sapiens, BT-20, 72 h, BT20, 72 h (Table 9)) of 580 nM and an IC50 (Homo sapiens, BXPC-3, 72 h, BXPC3, 72 h (Table 9)) of 540 nM. The IC50 (Homo sapiens, C-33-A, 72 h, C33A, 72 h (Table 9)) was 240 nM, the IC50 (Homo sapiens, CAKI-1, 72 h, CAKI1, 72 h (Table 9)) was 110 nM and the IC50 (Homo sapiens, COLO 205, 72 h, COLO205, 72 h (Table 9)) was 210 nM. It also gave an IC50 (Homo sapiens, COLO-678, 72 h, COLO678, 72 h (Table 9)) of 3760 nM, an IC50 (Homo sapiens, Ca-Ski, 72 h, CASKI, 72 h (Table 9)) of 3960 nM and an IC50 (Homo sapiens, Caco-2, 72 h, CACO2, 72 h (Table 9)) of over 50000 nM. The IC50 (Homo sapiens, Calu-6, 72 h, CALU6, 72 h (Table 9)) was 720 nM, the IC50 (Homo sapiens, DLD-1, 72 h, DLD1, 72 h (Table 9)) was 2650 nM and the IC50 (Homo sapiens, DU-145, 72 h, DU145, 72 h (Table 9)) was 310 nM. It also gave an IC50 (Homo sapiens, EFO-21, 72 h, EFO21, 72 h (Table 9)) of 790 nM, an IC50 (Homo sapiens, EJ-28, 72 h, EJ28, 72 h (Table 9)) of 1530 nM and an IC50 (Homo sapiens, Granta-519, 72 h, GRANTA-519, 72 h (Table 9)) of 70 nM. It also gave an IC50 (Homo sapiens, HCT-15, 72 h, HCT15, 72 h (Table 9)) of 460 nM, an IC50 (Homo sapiens, HCT-116, 72 h, HCT116, 72 h (Table 9)) of 470 nM and an IC50 (Homo sapiens, HEK293, 72 h, HEK293, 72 h (Table 9)) of over 50000 nM. For the same molecule, the IC50 (Homo sapiens, HL-60, 72 h, HL-60, 72 h (Table 9)) was 1010 nM, the IC50 (Homo sapiens, HT-29, 72 h, HT29, 72 h (Table 9)) was 1270 nM and the IC50 (Homo sapiens, HT-1080, 72 h, HT1080, 72 h (Table 9)) was 380 nM. For the same molecule, the IC50 (Homo sapiens, HeLa, 72 h, 72 h (Table 9)) was 1000 nM, the IC50 (Homo sapiens, HepG2, 72 h, HEPG2, 72 h (Table 9)) was 1000 nM and the IC50 (Homo sapiens, Hs-578T, 72 h, HS578T, 72 h (Table 9)) was 970 nM. For the same molecule, the IC50 (Homo sapiens, IGROV-1, 72 h, IGROV1, 72 h (Table 9)) was 510 nM, the IC50 (Homo sapiens, IMR-90, 72 h, IMR90, 72 h (Table 9)) was 1580 nM and the IC50 (Homo sapiens, JEG-3, 72 h, JEG3, 72 h (Table 9)) was 3340 nM. The IC50 (Homo sapiens, JIMT-1, 72 h, JIMT1, 72 h (Table 9)) was 190 nM, the IC50 (Homo sapiens, K562, 72 h, K-562, 72 h (Table 9)) was 4450 nM and the IC50 (Homo sapiens, Kasumi 1, 72 h, KASUMI-1, 72 h (Table 9)) was 270 nM. The IC50 (Homo sapiens, L-363, 72 h, L-363, 72 h (Table 9)) was over 50000 nM, the IC50 (Homo sapiens, LoVo, 72 h, 72 h (Table 9)) was 290 nM and the IC50 (Homo sapiens, MCF7, 72 h, MCF7, 72 h (Table 9)) was 3170 nM. It also gave an IC50 (Homo sapiens, MDA-MB-231, 72 h, MDAMB231, 72 h (Table 9)) of 100 nM, an IC50 (Homo sapiens, MDA-MB-435, 72 h, MDAMB435, 72 h (Table 9)) of 1300 nM and an IC50 (Homo sapiens, MDA-MB-436, 72 h, MDAMB436, 72 h (Table 9)) of 950 nM. It also gave an IC50 (Homo sapiens, MDA-MB-468, 72 h, MDAMB468, 72 h (Table 9)) of 3110 nM, an IC50 (Homo sapiens, MG-63, 72 h, MG63, 72 h (Table 9)) of 480 nM and an IC50 (Homo sapiens, MHH-ES-1, 72 h, MHHES1, 72 h (Table 9)) of 1660 nM. It also gave an IC50 (Homo sapiens, MIA PaCa-2, 72 h, MIAPACA2, 72 h (Table 9)) of 1150 nM, an IC50 (Homo sapiens, MINO, 72 h, 72 h (Table 9)) of 60 nM and an IC50 (Homo sapiens, MV4-11, 72 h, MV4-11, 72 h (Table 9)) of 840 nM. It also gave an IC50 (Homo sapiens, NCI-H23, 72 h, NCI-H23, 72 h (Table 9)) of 720 nM, an IC50 (Homo sapiens, NCI-H82, 72 h, NCIH82, 72 h (Table 9)) of 1150 nM and an IC50 (Homo sapiens, NCI-H292, 72 h, NCIH292, 72 h (Table 9)) of 920 nM. The IC50 (Homo sapiens, NCI-H460, 72 h, NCIH460, 72 h (Table 9)) was 770 nM, the IC50 (Homo sapiens, OVCAR-3, 72 h, OVCAR3, 72 h (Table 9)) was 640 nM and the IC50 (Homo sapiens, OVCAR-4, 72 h, OVCAR4, 72 h (Table 9)) was 8050 nM. The IC50 (Homo sapiens, PANC-1, 72 h, PANC1, 72 h (Table 9)) was 620 nM, the IC50 (Homo sapiens, PLC-PRF-5, 72 h, PLCPRF5, 72 h (Table 9)) was over 50000 nM and the IC50 (Homo sapiens, Panc1005, 72 h, PANC1005, 72 h (Table 9)) was over 50000 nM. The IC50 (Homo sapiens, Ramos, 72 h, 72 h (Table 9)) was 240 nM, the IC50 (Homo sapiens, SAOS-2, 72 h, SAOS2, 72 h (Table 9)) was 110 nM and the IC50 (Homo sapiens, SF-268, 72 h, SF268, 72 h (Table 9)) was 260 nM. For the same molecule, the IC50 (Homo sapiens, SF-295, 72 h, SF295, 72 h (Table 9)) was 3250 nM, the IC50 (Homo sapiens, SK-BR-3, 72 h, SKBR3, 72 h (Table 9)) was 260 nM and the IC50 (Homo sapiens, SK-HEP1, 72 h, SKHEP1, 72 h (Table 9)) was 320 nM. It also gave an IC50 (Homo sapiens, SK-LMS-1, 72 h, SKLMS1, 72 h (Table 9)) of 860 nM, an IC50 (Homo sapiens, SK-MEL-5, 72 h, SKMEL5, 72 h (Table 9)) of 6180 nM and an IC50 (Homo sapiens, SK-MEL-28, 72 h, SKMEL28, 72 h (Table 9)) of 1320 nM. It also gave an IC50 (Homo sapiens, SK-N-AS, 72 h, SKNAS, 72 h (Table 9)) of 1220 nM, an IC50 (Homo sapiens, SK-N-SH, 72 h, SKNSH, 72 h (Table 9)) of over 50000 nM and an IC50 (Homo sapiens, SK-OV-3, 72 h, SKOV3, 72 h (Table 9)) of 1460 nM. The IC50 (Homo sapiens, SNB-75, 72 h, SNB75, 72 h (Table 9)) was 550 nM, the IC50 (Homo sapiens, SU-DHL10, 72 h, SU-DHL-10, 72 h (Table 9)) was 560 nM and the IC50 (Homo sapiens, SU-DHL-6, 72 h, SU-DHL-6, 72 h (Table 9)) was 310 nM. For the same molecule, the IC50 (Homo sapiens, SW-620, 72 h, SW620, 72 h (Table 9)) was 1140 nM, the IC50 (Homo sapiens, TE-671, 72 h, TE671, 72 h (Table 9)) was 1020 nM and the IC50 (Homo sapiens, THP-1, 72 h, THP-1, 72 h (Table 9)) was 650 nM. For the same molecule, the IC50 (Homo sapiens, U2OS, 72 h, 72 h (Table 9)) was 2450 nM, the IC50 (Homo sapiens, U-87 MG, 72 h, U87MG, 72 h (Table 9)) was 400 nM and the IC50 (Homo sapiens, UMUC3, 72 h, UMUC3, 72 h (Table 9)) was 1210 nM. The IC50 (Homo sapiens, UO-31, 72 h, UO31, 72 h (Table 9)) was 550 nM, the IC50 (Homo sapiens, WSU-NHL, 72 h, 72 h (Table 9)) was 150 nM and the IC50 (NCI-H358M, 72 h, NCIH358M, 72 h (Table 9)) was 120 nM. For the same molecule, the IC50 (PBMC, 72 h, 72 h (Table 9)) was 710 nM and the IC50 (RD-ES, 72 h, RDES, 72 h (Table 9)) was 1900 nM.

Reference: patent publication US20230293526A1, “METHOD FOR TREATING CANCER WITH A REVERSE TRANSCRIPTASE INHIBITOR” (PrimeFour Therapeutics, Inc., priority 2020, published 2023)
